Source: US10314815B2, “Polymorph of granaticin B” (Sloan-Kettering Institute for Cancer Research, priority 2014, dated 2019)

Legend:
Type in all cases: physicochemical
[1] = Stability of crystalline Form A compared with amorphous Compound 1; conditions: crystalline Form A vs amorphous; traditional purification process
Hygroscopicity of Form A = assay: Hygroscopicity of Form A
[2] = UV-Vis pH-dependent colour change (bathochromic shift) of MSK-777; conditions: colour change red to blue, basic conditions; read-out: approximate averaged pKa values of the acidic phenol protons (inflection point of colour change)
From the text: These absorptions indicate a benzoisochromanequinones (BIQ) chromophore. The broad adsorption in the visible region (around 527 nm) is responsible for the intense red color of the substance.
Under basic conditions (pH>8) a bathochromic shift of Vis-absorption (ca. 40 nm) is observed, indicating ionization of slightly acidic phenolic protons. This pH dependent indicatory behavior is characteristic to the BIQ chromophore and is visually observed as the solution turns from red to blue.

[3] = Chemical degradation under acidic conditions observed by HPLC; conditions: acidic conditions (pH<4), ambient temperature
From the text: The degradation is caused by hydrolysis of the glycosidic bond, forming Granaticin A, the biosynthetic precursor of MSK-777. Consistently, in a time dependent HPLC experiment a simultaneous increase of Granaticin A chromatographic areas and decrease of Granaticin B areas is observed. The hydrolysis experiment and the almost identical UV spectra indicate that MSK-777 (Granaticin B) and Granatioin A share the same core structure and chromophore. Therefore the structural difference between Granaticin A and MSK-777 arises from a hydrolysable part (sugar moiety) of the latter compound.

stability of solid form [1]	hygroscopicity (Hygroscopicity of Form A)	pKa [2]	degradation (hydrolysis of the glycosidic bond forming Granaticin A) [3]	Structure (SMILES)
less stable and prone to degradation	–	–	–	CC1OC2CC(=O)OC2C2=C1C(=O)c1c(O)c3c(c(O)c1C2=O)C1CC(OC2CCC(O)C(C)O2)C3(O)C(C)O1 (centres unmarked) [Amorphous Compound 1, granaticin B]
more stable than amorphous Compound 1	substantially non-hygroscopic	–	–	CC1OC2CC(=O)OC2C2=C1C(=O)c1c(O)c3c(c(O)c1C2=O)C1CC(OC2CCC(O)C(C)O2)C3(O)C(C)O1 (centres unmarked) [Form A of Compound 1, granaticin B]
–	–	~8.5	slow degradation	CC1OC2CC(=O)OC2C2=C1C(=O)c1c(O)c3c(c(O)c1C2=O)C1CC(OC2CCC(O)C(C)O2)C3(O)C(C)O1 (centres unmarked) [MSK-777, granaticin B]
